According to ChEMBL document CHEMBL1201862, “PubChem BioAssay data set” (2004):
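Cells were grown in 96-well plates and exposed to each compound for 48 hours at five concentrations; endpoints were interpolated linearly between bracketing concentrations, or set to the highest concentration if not reached. GI50 = concentration required for 50% inhibition of growth.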 Activity calls are given as the source filed them. No stated cut-off is given here; in the data, active = GI50 up to about 1.1 µM and inactive = higher.

Assays:
Experiment in all cases: DTP human tumour cell line panel, 48 h
A549 = test system: A549
T47D = test system: T47D
MDA-MB-435 = test system: MDA-MB-435
OVCAR-3 = test system: OVCAR-3
OVCAR-8 = test system: OVCAR-8
DU-145 = test system: DU-145
Hs-578T = test system: Hs-578T
UO-31 = test system: UO-31
M14 = test system: M14
CCRF-CEM = test system: CCRF-CEM
TK-10 = test system: TK-10
IGROV-1 = test system: IGROV-1
SF-268 = test system: SF-268
HCT-116 = test system: HCT-116
SK-MEL-5 = test system: SK-MEL-5
SNB-75 = test system: SNB-75
PC-3 = test system: PC-3
786-0 = test system: 786-0
HOP-92 = test system: HOP-92
MOLT-4 = test system: MOLT-4

Measured: GI50

N=C(N)Nc1ccc(CC(N)C(=O)NCC(=O)C(CC(=O)O)c2ncc(NC(=O)C(F)(F)F)o2)cc1 (centres undefined)
inactive: A549 > 25 µM | T47D > 25 µM | MDA-MB-435 > 25 µM | OVCAR-3 > 25 µM | OVCAR-8 > 25 µM | DU-145 > 25 µM | Hs-578T > 25 µM | UO-31 > 25 µM | M14 > 25 µM | CCRF-CEM > 25 µM | TK-10 > 25 µM | IGROV-1 > 25 µM | SF-268 > 25 µM | HCT-116 > 25 µM | SK-MEL-5 > 25 µM | SNB-75 > 25 µM | PC-3 > 25 µM | 786-0 > 25 µM

COc1cc2nc(-c3cccs3)nc(N3C(c4ccc(O)cc4)=NNC(=O)c4ccccc43)c2cc1OC
inactive: A549 55.6 µM | T47D 29.2 µM | MDA-MB-435 26.2 µM | OVCAR-8 36.1 µM | DU-145 4.54 µM | Hs-578T 42.9 µM | UO-31 19 µM | M14 29.5 µM | CCRF-CEM 4.99 µM | TK-10 30.5 µM | IGROV-1 32.7 µM | SF-268 28.7 µM | HCT-116 32.4 µM | SK-MEL-5 46.8 µM | SNB-75 24 µM | PC-3 25.6 µM | 786-0 52.8 µM

CN1CCN(C(=S)N(C(=O)c2ccc(Cl)cc2)c2ccccc2)CC1
inactive: A549 > 100 µM | HOP-92 > 100 µM | T47D > 100 µM | MDA-MB-435 > 100 µM | OVCAR-3 > 100 µM | OVCAR-8 > 100 µM | DU-145 > 100 µM | Hs-578T 34.5 µM | UO-31 > 100 µM | M14 > 100 µM | CCRF-CEM > 10 µM | TK-10 > 100 µM | IGROV-1 > 100 µM | SF-268 > 100 µM | SK-MEL-5 > 100 µM | MOLT-4 > 100 µM | SNB-75 41.8 µM | 786-0 > 100 µM

C1=C\SS/C=C\SS/C=C\SS/C=C\SS/1
inactive: A549 > 100 µM | HOP-92 75.7 µM | T47D > 100 µM | MDA-MB-435 > 100 µM | OVCAR-8 44.8 µM | DU-145 > 100 µM | Hs-578T > 100 µM | UO-31 > 100 µM | M14 83.9 µM | CCRF-CEM 10.2 µM | TK-10 > 100 µM | IGROV-1 > 100 µM | SF-268 70.8 µM | HCT-116 > 100 µM | SK-MEL-5 99.3 µM | MOLT-4 42.3 µM | PC-3 > 100 µM | 786-0 46 µM

COc1cc(C(C)(C)C)c(OC(=O)/C=C/C(=O)O/C=C/[N+](=O)[O-])c(C(C)(C)C)c1
inactive: A549 21.4 µM | HOP-92 > 100 µM | T47D 41.8 µM | MDA-MB-435 21.2 µM | OVCAR-3 32.7 µM | OVCAR-8 36.4 µM | DU-145 38.2 µM | Hs-578T 28.6 µM | UO-31 28.1 µM | M14 21.1 µM | CCRF-CEM 10.2 µM | TK-10 85.3 µM | IGROV-1 69.8 µM | SF-268 30.2 µM | HCT-116 46.5 µM | SK-MEL-5 35.3 µM | MOLT-4 > 100 µM | SNB-75 > 100 µM | 786-0 34.4 µM

COc1cc(/C=C/c2ccc(O)c(OC)c2)cc(OC)c1
inactive: A549 25.6 µM | HOP-92 12.3 µM | T47D 33.9 µM | OVCAR-8 37.5 µM | DU-145 23.1 µM | Hs-578T 14.2 µM | UO-31 20 µM | M14 21 µM | CCRF-CEM 14.4 µM | TK-10 20.2 µM | IGROV-1 39.9 µM | SF-268 34.4 µM | HCT-116 27.5 µM | SK-MEL-5 23.9 µM | MOLT-4 20.9 µM | SNB-75 23.1 µM | PC-3 10.3 µM | 786-0 45.5 µM

Cn1ccc(C(=O)NCCCCCNC(=O)c2ccn(C)c(=O)c2O)c(O)c1=O
inactive: A549 > 100 µM | HOP-92 > 100 µM | T47D > 100 µM | MDA-MB-435 > 100 µM | OVCAR-8 > 100 µM | DU-145 > 100 µM | Hs-578T > 100 µM | UO-31 > 100 µM | CCRF-CEM > 100 µM | TK-10 > 100 µM | SF-268 > 100 µM | HCT-116 > 100 µM | SK-MEL-5 > 100 µM | PC-3 > 100 µM | 786-0 > 100 µM

Cc1ccc(-n2cc(-c3ccc(Cl)cc3)c3c2N=CN2N=C(c4cccs4)NC32)cc1 (centres undefined)
inactive: A549 21.9 µM | HOP-92 7.64 µM | MDA-MB-435 38.7 µM | OVCAR-3 9.73 µM | OVCAR-8 6.46 µM | DU-145 > 100 µM | Hs-578T 2.07 µM | UO-31 7.64 µM | M14 18.7 µM | CCRF-CEM 11.2 µM | TK-10 11.2 µM | IGROV-1 14.2 µM | SF-268 17.8 µM | HCT-116 5.13 µM | SK-MEL-5 > 100 µM | SNB-75 8.38 µM | PC-3 16.5 µM | 786-0 4.28 µM

Cc1cc2nc3c(C#N)c4c(c(Nc5ccc(F)cc5)n3c2cc1C)CCC4
inactive: A549 > 100 µM | T47D > 100 µM | MDA-MB-435 > 100 µM | OVCAR-3 > 100 µM | OVCAR-8 > 100 µM | DU-145 > 100 µM | Hs-578T 70.5 µM | M14 > 100 µM | CCRF-CEM > 100 µM | TK-10 > 100 µM | IGROV-1 > 100 µM | SF-268 > 100 µM | HCT-116 > 100 µM | SK-MEL-5 > 100 µM | MOLT-4 > 100 µM | SNB-75 > 100 µM | PC-3 > 100 µM | 786-0 > 100 µM

c1ccc(NC2(c3nnnn3C3CCCCC3)CCNCC2)cc1
inactive: A549 32.4 µM | HOP-92 6.01 µM | T47D 23.1 µM | MDA-MB-435 19.4 µM | OVCAR-8 28.6 µM | DU-145 37 µM | Hs-578T 14.1 µM | UO-31 11.9 µM | M14 17.6 µM | CCRF-CEM 20.4 µM | TK-10 16.8 µM | IGROV-1 32.7 µM | SF-268 39.6 µM | HCT-116 15.2 µM | SK-MEL-5 19.5 µM | MOLT-4 18.2 µM | SNB-75 14.9 µM | 786-0 15 µM

Cc1cc(C)nc(NS(=O)(=O)c2ccc(Nc3nnc(/C=C/c4c(O)ccc5ccccc45)c(=O)n3N)cc2)n1
inactive: A549 30.7 µM | HOP-92 47.5 µM | T47D 11.1 µM | MDA-MB-435 20.1 µM | OVCAR-3 13.2 µM | OVCAR-8 25.7 µM | DU-145 36.4 µM | Hs-578T 79.4 µM | UO-31 26 µM | M14 22.1 µM | CCRF-CEM 12 µM | IGROV-1 27.9 µM | SF-268 33.7 µM | HCT-116 17.9 µM | MOLT-4 > 100 µM | SNB-75 17.3 µM | 786-0 28.6 µM
